Residue numbers refer to the chain shown, from its start.
Assays:
GkApcT [1] = target: T1, GkApcT (Geobacillus kaustophilus, UniProt Q5L1G5, K191R); assay: thermal stability (nanoDSF); format: binding; details: 10 mM L-Ala; pH 6.0
T1 construct: gene GK0930; cleavable GFP-His tag (pWaldo-GFP) removed with TEV; expressed in E. coli C43(DE3); co-purifies with E. coli MgtS; purified in DM/DDM, reconstituted in POPE:POPG liposomes

GkApcT [2] = target: T2, GkApcT (Geobacillus kaustophilus, UniProt Q5L1G5, R334E); assay: electrogenic 3H-L-Ala uptake competition in proteoliposomes; format: biochemical
T2 construct: gene GK0930; cleavable GFP-His tag (pWaldo-GFP) removed with TEV; expressed in E. coli C43(DE3); co-purifies with E. coli MgtS; purified in DM/DDM, reconstituted in POPE:POPG liposomes

GkApcT [3] = target: T3, GkApcT (Geobacillus kaustophilus, UniProt Q5L1G5, K191A); assay: thermal stability (nanoDSF); format: binding; details: 10 mM L-Ala; pH 6.0
T3 construct: gene GK0930; cleavable GFP-His tag (pWaldo-GFP) removed with TEV; expressed in E. coli C43(DE3); co-purifies with E. coli MgtS; purified in DM/DDM, reconstituted in POPE:POPG liposomes

GkApcT [4] = target: T4, GkApcT (Geobacillus kaustophilus, UniProt Q5L1G5, E115Q); assay: thermal stability (nanoDSF); format: binding; details: 10 mM L-Ala; pH 6.0
T4 construct: gene GK0930; cleavable GFP-His tag (pWaldo-GFP) removed with TEV; expressed in E. coli C43(DE3); co-purifies with E. coli MgtS; purified in DM/DDM, reconstituted in POPE:POPG liposomes

GkApcT [5] = target: T5, GkApcT (Geobacillus kaustophilus, UniProt Q5L1G5, K191N); assay: thermal stability (nanoDSF); format: binding; details: 10 mM L-Ala; pH 6.0
T5 construct: gene GK0930; cleavable GFP-His tag (pWaldo-GFP) removed with TEV; expressed in E. coli C43(DE3); co-purifies with E. coli MgtS; purified in DM/DDM, reconstituted in POPE:POPG liposomes

GkApcT [6] = target: T6, GkApcT (Geobacillus kaustophilus, UniProt Q5L1G5); assay: electrogenic 3H-L-Ala uptake competition in proteoliposomes; format: biochemical
T6 construct: gene GK0930; cleavable GFP-His tag (pWaldo-GFP) removed with TEV; expressed in E. coli C43(DE3); co-purifies with E. coli MgtS; purified in DM/DDM, reconstituted in POPE:POPG liposomes
T6 sequence (Q5L1G5 1-471): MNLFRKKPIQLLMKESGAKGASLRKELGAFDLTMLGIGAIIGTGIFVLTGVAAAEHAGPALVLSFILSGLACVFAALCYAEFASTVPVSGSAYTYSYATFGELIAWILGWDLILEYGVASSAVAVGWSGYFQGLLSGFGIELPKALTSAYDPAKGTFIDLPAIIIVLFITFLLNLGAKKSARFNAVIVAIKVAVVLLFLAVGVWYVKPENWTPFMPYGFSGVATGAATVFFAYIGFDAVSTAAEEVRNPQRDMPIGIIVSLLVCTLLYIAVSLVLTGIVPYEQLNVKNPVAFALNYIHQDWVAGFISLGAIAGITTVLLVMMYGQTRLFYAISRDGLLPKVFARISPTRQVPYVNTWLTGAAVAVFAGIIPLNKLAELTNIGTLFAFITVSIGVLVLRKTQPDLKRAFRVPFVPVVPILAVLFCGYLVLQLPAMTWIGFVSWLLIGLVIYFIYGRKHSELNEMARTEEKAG

GkApcT [7] = target: T6, GkApcT; assay: thermal stability (nanoDSF); format: binding; details: 10 mM L-Ala; pH 6.0
GkApcT [8] = target: T7, GkApcT (Geobacillus kaustophilus, UniProt Q5L1G5, M321S); assay: electrogenic 3H-L-Ala uptake competition in proteoliposomes; format: biochemical
T7 construct: gene GK0930; cleavable GFP-His tag (pWaldo-GFP) removed with TEV; expressed in E. coli C43(DE3); co-purifies with E. coli MgtS; purified in DM/DDM, reconstituted in POPE:POPG liposomes
T7 sequence (Q5L1G5 1-471 M321S): T6 sequence (Q5L1G5 1-471) with M321S

GkApcT-MgtS heterodimer [9] = target: T8, GkApcT-MgtS heterodimer (Geobacillus kaustophilus, UniProt A5A616+Q5L1G5); assay: thermal stability (circular dichroism); format: binding; details: pH 6.5
T8 construct: gene GK0930; heterodimer of G. kaustophilus GkApcT with host-derived E. coli MgtS (YneM); GFP-His tag cut with TEV; expressed in E. coli C43(DE3)
T8 sequence (Q5L1G5 1-471): T6 sequence (Q5L1G5 1-471)
T8 sequence (A5A616 1-31): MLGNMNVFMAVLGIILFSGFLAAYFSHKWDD

GkApcT-MgtS heterodimer [10] = target: T8, GkApcT-MgtS heterodimer; assay: X-ray crystal structure; format: binding; details: site between GkApcT TM5 and MgtS; cholesterol-doped monoolein LCP

T1 sequence (Q5L1G5 entry or part of it K191R): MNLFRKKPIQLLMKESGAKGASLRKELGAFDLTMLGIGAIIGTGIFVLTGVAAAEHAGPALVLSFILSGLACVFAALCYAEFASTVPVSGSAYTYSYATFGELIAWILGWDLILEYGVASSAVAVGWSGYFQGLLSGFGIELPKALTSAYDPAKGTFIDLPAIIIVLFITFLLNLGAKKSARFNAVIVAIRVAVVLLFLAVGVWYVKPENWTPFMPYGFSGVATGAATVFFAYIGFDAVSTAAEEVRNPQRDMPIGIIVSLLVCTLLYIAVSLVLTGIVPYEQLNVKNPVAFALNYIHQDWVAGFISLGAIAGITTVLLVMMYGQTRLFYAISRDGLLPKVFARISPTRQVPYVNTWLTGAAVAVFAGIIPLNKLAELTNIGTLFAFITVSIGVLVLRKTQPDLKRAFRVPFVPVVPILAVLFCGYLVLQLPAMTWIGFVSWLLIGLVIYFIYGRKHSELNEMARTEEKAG
T2 sequence (Q5L1G5 entry or part of it R334E): as the sequence (Q5L1G5 entry or part of it K191R) above, with R191K, R334E counted along it
T3 sequence (Q5L1G5 entry or part of it K191A): as the sequence (Q5L1G5 entry or part of it K191R) above, with R191A counted along it
T5 sequence (Q5L1G5 entry or part of it K191N): as the sequence (Q5L1G5 entry or part of it K191R) above, with R191N counted along it
T4 sequence (Q5L1G5 entry or part of it E115Q): as the sequence (Q5L1G5 entry or part of it K191R) above, with E115Q, R191K counted along it

C[C@H](N)C(=O)O [L-Alanine]
dTm (GkApcT [1]): A similar stabilising effect was also observed in the Lys191Ala, Arg and Asn variants | IC50 (GkApcT [2]): 0.4 µM | dTm (GkApcT [3]): A similar stabilising effect was also observed in the Lys191Ala, Arg and Asn variants | dTm (GkApcT [4]): Glu115Gln variant can still recognise alanine to the same extent as wild-type protein | dTm (GkApcT [5]): A similar stabilising effect was also observed in the Lys191Ala, Arg and Asn variants | IC50 (GkApcT [6]): 2 µM | Tm with ligand (GkApcT [7]): ~58 to ~69

N=C(N)NCCC[C@H](N)C(=O)O [L-arginine]
IC50 (GkApcT [8]): 11.4 µM | IC50 (GkApcT [6]): 6000 µM

CC(C)CCC[C@@H](C)[C@H]1CC[C@H]2[C@@H]3CC=C4C[C@@H](OC(=O)CCC(=O)O)CC[C@]4(C)[C@H]3CC[C@]12C [cholesterol hemisuccinate]
Tm with ligand (GkApcT-MgtS heterodimer [9]): 57 to 72 °C

CC(C)CCC[C@@H](C)[C@H]1CC[C@H]2[C@@H]3CC=C4C[C@@H](O)CC[C@]4(C)[C@H]3CC[C@]12C [cholesterol]
X-ray crystal structure (GkApcT-MgtS heterodimer [10]): we observed density for a cholesterol molecule in this pocket

Source: article PMC5803215, “Structural basis for amino acid transport by the CAT family of SLC7 transporters” (Nature Communications, 2018)
